Source: patent US4772594A, “Prodrug compounds, process for the preparation thereof and sustained release preparation comprising the same” (Fujisawa Pharmaceutical Co., Ltd., priority 1986, dated 1988)

Tests used:
[1] = Conversion Test 1: conversion half life of prodrug to parent compound in mouse serum; type: in vitro ADME; settings: 37° C.
Procedure: (§1) Chloroform solution containing egg yolk lecithin (84 μmole), egg yolk sphingomyelin (36 μmole) and Mitomycin C prodrug ( 6 μmole) obtained in the below-mentioned Example 1 or 2 was poured into a round-bottom flask and evaporated to dryness.
(§2) To this were added sodium cholate (258 mg) and pH 7.4 phosphate buffered saline (hereinafter referred to as PBS) (4.8 ml) and the mixture was agitated to give a clear purple solution.
(§3) Sodium cholate was removed from the solution by the Lipoprep dialyzer (detergent removal apparatus prepared by Diachema Co., Ltd.) to give a liposome suspension containing Mitomycin C prodrug.
(§4) Chloroform solution containing egg yolk lecithin (70 μmole), egg yolk sphingomyelin (30 μmole) and FR900482 substance prodrug (Example 6)(5 μmole) was poured into a round-bottom flask and a liposome suspension containing FR900482 substance prodrug was obtained in a similar manner to that of above-mentioned method. […]
(§5) After the liposome suspension and ethanol solution of each prodrug (0.5 ml) were added to mouse, rat or human serum (4.5 ml, 37° C.), samples were taken periodically and the concentration of each prodrug was determined by high-performance liquid chromotography.
(§6) Conversion half lives (t 1/2) of each prodrug to each parent compound in various kinds of serum were calculated by the concentration of each prodrug remaining at each time.

[2] = Conversion Test 1: conversion half life of prodrug to parent compound in rat serum; type: in vitro ADME; settings: rat serum, 37° C.
Procedure: as §1, §2, §3
Chloroform solution containing egg yolk lecithin (70 μmole), egg yolk sphingomyelin (30 μmole) and FR900482 substance prodrug (Example 6)(5 μmole) was poured into a round-bottom flask and a liposome suspension containing FR900482 substance prodrug was obtained in a similar manner to that of above-mentioned method.
Above-mentioned two liposome suspensions containing Mitomycin C prodrug were each diluted with PBS at 2.5 times.
The liposome suspension containing FR900482 substance prodrug was diluted with PBS to obtain the drug concentration of 0.5 μmole/ml and was filtered through millex-GV (trademark: prepared by Millipore Co., Ltd.) filter (0.22μ).
as §5, §6

[3] = Conversion Test 1: conversion half life of prodrug to parent compound in human serum; type: in vitro ADME; settings: 37° C.
Procedure: as §1, §2, §3, §4, §5, §6

[4] = test system: Mouse leukemia cell L 1210; test: Anti tumor test 1: survival of mice implanted with L 1210 leukemia; type: in vivo; settings: i.v. liposome suspension; for T/C: mean survival time vs control
Text: The mixture of chloroform and methanol (8:2 V/V) containing egg yolk lecithin (245 μmole), egg yolk sphingomyelin (105 μmole) and Cytarabine prodrug (Example 8) (87.5 and 262.5 μmole respectively) was taken in a roundbottom flask. Liposome suspensions containing Cytarabine prodrug (Concentration: 10 and 20 μmole/ml respectively) were obtained in a similar manner to that of the above-mentioned method. Mouse leukemia cell L 1210 (10^5 cells) were implanted intraperitoneally into BDF female mice (7 weeks).
After 24 hours after inoculation, Cytarabine aqueous solution (dose: 1000 and 3000 μmole/kg respectively), above-mentioned liposome suspension containing Cytarabine prodrug (dose: 100 and 300 μmole/kg respectively)and aqueous solution of N^4 -behenoyl-1-β-arabinofuranosylcytosine (hereinafter referred to as BHAC) which is a known compound as Cytarabine prodrug and is shown by the following structure (dose: 100 and 300 μmole/kg respectively) were administered intravenously to the mouse at a volume of 0.2 ml or 0.3 ml (in case the administration at the dose of 300 μmole/kg of Cytarabine prodrug) per 20 g of mouse body weight. After the treatment, survival of the mice was recorded. [drawing 9]

in vitro = in vitro ADME; settings: rat, serum
Procedure: The mixture of chloroform and methanol (8:2 v/v) mixture containing egg yolk lecithin (70 μmole), egg yolk sphingomyelin (30 μmole) and Cytarabine prodrug (30 μmole) obtained in the below-mentioned Example 8 was poured into a round-bottom flask and evaporated to dryness. To this were added sodium cholate (53.8 mg) and PBS (5.0 ml) and the mixture was agitated to give a clear colorless solution.
Sodium cholate was removed from the solution by the Lipoprep dialyzer to give liposome suspension containing Cytarabine prodrug.
The liposome suspension was diluted with PBS to obtain the drug concentration of 5 μmole/ml and was filtered successively through polycarbonate membranes(prepared by Nuclepore Co., Ltd.) (0.2, 0.1 and 0.08μ respectively) and then filtered through a millex-GV filter (0.22 μ).
After the above-mentioned liposome suspension and ethanol solution of Cytarabine prodrug (0.08 ml) were added to rat serum (4.0 ml, 37° C.), samples were taken periodically and the concentration of Cytarabine prodrug was determined by high-performance liquid chromatography.
Conversion half lives (t 1/2) of the prodrug to the parent compound were calculated by the concentration of prodrug remaining at each time.

[5] = test system: human lung adenocarcinoma A 549; test: Anti tumor test 2: growth inhibition of A 549 under the subrenal capsule of mice; type: in vivo; settings: Day 14, i.v. liposome preparation; for Inhibition: tumor growth
Text: The mixture of chloroform and methanol (3:1 V/V) containing egg yolk lecithin (245 μmole), egg yolk sphingomyelin (105 μmole) and Cyarabine prodrug (Example 8) (87.5 and 157.5 μmole respectively) was taken in a round-bottom flask. Liposome suspensions containing Cytarabine prodrug (Concentration: 10 and 18 μmole/ml respectively) were obtained in a similar manner to that of the above-mentioned method.
A fragment of human lung adenocarcinoma A 549 was implanted under the subrenal capsule of BDF female mouse (8 weeks). Cytarabine aqueous solution (dose: 1000 μmole/kg) and above-mentioned liposome suspension containing Cytarabine prodrug (dose: 100 and 180 μmole/kg respectively)were administered intravenously to the mice at a volume of 0.2 ml per mouse body weight 20 g at Day 1, 5 and 9 after implantation. The tumor volume at Day 14 after implantation was measured and the growth inhibition percent was calculated. (In this test, to clarify the anti tumor effect of each preparation, 17-allyl-1,14-dihydroxy-12-[2-(4-hydroxy-3- methoxycyclohexyl)-1-methylvinyl]-23,25-dimethoxy-13,19,21,27-tetramethyl- 11,28-dioxa-4-azatricyclo[22.3.1.0^4,9 ]octacos-18-ene-2,3,10,16-tetraone as immunosuppressive substance(dose: 32 mg/kg) was administered subcutaneously at Day 1, 2, 5, 7, 9 and 12 after implanation.)

Molecule | Half life (t 1/2) ([1]; ethanol solution) [h] | Half life (t 1/2) ([1]; liposome suspension) [h] | Half life (t 1/2) ([2]; ethanol solution) [h] | Half life (t 1/2) ([2]; liposome suspension) [h] | Half life (t 1/2) ([3]; ethanol solution) [h] | Half life (t 1/2) ([3]; liposome suspension) [h] | Mean survival time ([4]; 100 μmole/kg) [days] | Mean survival time ([4]; 300 μmole/kg) [days] | T/C ([4]; 100 μmole/kg) [%] | T/C ([4]; 300 μmole/kg) [%] | Half life (t 1/2) (in vitro) [h] | half-life (in vitro; Half life (t 1/2)) [h] | Tumor volume mean value ± standard error ([5]; 100 μmole/kg at Day 1, 5, 9) [mm^3] | Tumor volume mean value ± standard error ([5]; 180 μmole/kg at Day 1, 5, 9) [mm^3] | Inhibition ([5]; 100 μmole/kg at Day 1, 5, 9) [%] | Inhibition ([5]; 180 μmole/kg at Day 1, 5, 9) [%]
11-[N-(cholest-5-en-3β-oxycarbonyl)glycyl]-4-formyl-6,9-dihydroxy-14- oxa-1,11-diazatetracyclo[7.4.1.0^2,7.0^10,12 ]tetradeca-2,4,6-triene-8-ylmethylcarbamate [Example 6] | 2.7 | 4.6 | 4.0 | 10.3 | 3.3 | 9.9 |  |  |  |  |  |  |  |  |  | 
CC(C)CCC[C@@H](C)[C@H]1CC[C@H]2[C@@H]3CC=C4C[C@@H](OC(=O)NCC(=O)Nc5ccn([C@@H]6O[C@H](CO)[C@@H](O)[C@@H]6O)c(=O)n5)CC[C@]4(C)[C@H]3CC[C@]12C [Example 8, N^4-[N-(cholest-5-en-3β-oxycarbonyl)glycyl]-1-β-D-arabinofuranosylcytosine] |  |  |  |  |  |  | 16.3 ± 0.3 | 33.3 ± 13.4 | 181 | 370 | 37.3 | 22.6 | 13.0 ± 3.0 | 5.5 ± 1.6 | 54.1 | 80.4
